According to PubChem BioAssay AID290 (DTP/NCI, 2004):
Records with an inconclusive call do not appear.

Test system: mice, P1798 lymphosarcoma sc, survival or tumor weight T/C
Test: NCI In Vivo Anticancer Drug Screen. Data for tumor model P1798 Lymphosarcoma (subcutaneous) in unknown mice
Conditions: endpoint: mean tumor weight, higher = larger tumour
Protocol: The antitumor activity of compounds was measured in mice bearing transplantable tumors. Survival or tumor size were measured and the results are expressed as the measurement made in the treated group (T) divided by the measurement made in the vehicle treated control group (C). The tumor model used in this assay is P1798 Lymphosarcoma (subcutaneous) in unknown mice

[1] = dose: 12.5 mg/kg/injection, schedule: Q01DX010 (ip), vehicle: carboxymethylcellulose (CMC)
[2] = dose: 25.0 mg/kg/injection, schedule: Q01DX010 (ip), vehicle: carboxymethylcellulose (CMC)
[3] = dose: 50.0 mg/kg/injection, schedule: Q01DX010 (ip), vehicle: carboxymethylcellulose (CMC)
[4] = dose: 100.0 mg/kg/injection, schedule: Q01DX010 (ip), vehicle: carboxymethylcellulose (CMC)

With `N=C(N)c1ccc(Nc2ccc(C(=N)N)cc2)cc1` the T/C (dose: 3.0 mg/kg/injection, schedule: Q01DX010 (ip), vehicle: saline) was 105 % of control, the T/C (dose: 6.0 mg/kg/injection, schedule: Q01DX010 (ip), vehicle: saline) was 117 % of control and the T/C (dose: 6.25 mg/kg/injection, schedule: Q01DX010 (ip), vehicle: methylcellulose (MC)) was 66 % of control. The T/C (dose: 12.0 mg/kg/injection, schedule: Q01DX010 (ip), vehicle: saline) was 77 % of control and the T/C (dose: 12.5 mg/kg/injection, schedule: Q01DX010 (ip), vehicle: methylcellulose (MC)) was 77 % of control.

`CN(/N=N/N(C)c1ccccc1)c1ccccc1` was tested, and the T/C (dose: 15.6 mg/kg/injection, schedule: Q01DX010 (ip), vehicle: carboxymethylcellulose (CMC)) was 59 % of control, the T/C (dose: 31.3 mg/kg/injection, schedule: Q01DX010 (ip), vehicle: carboxymethylcellulose (CMC)) was 44 % of control and the T/C (dose: 62.5 mg/kg/injection, schedule: Q01DX010 (ip), vehicle: carboxymethylcellulose (CMC)) was 39 % of control. For the same compound, the T/C (dose: 125.0 mg/kg/injection, schedule: Q01DX010 (ip), vehicle: carboxymethylcellulose (CMC)) was 58 % of control.

For `[I][Hg][CH2]C1COC([CH2][Hg][I])CO1` (stereo not drawn), the T/C (dose: 1.8 mg/kg/injection, schedule: Q01DX010 (ip), vehicle: carboxymethylcellulose (CMC)) was 64 % of control, the T/C (dose: 3.75 mg/kg/injection, schedule: Q01DX010 (ip), vehicle: carboxymethylcellulose (CMC)) was 85 % of control and the T/C (dose: 7.5 mg/kg/injection, schedule: Q01DX010 (ip), vehicle: carboxymethylcellulose (CMC)) was 81 % of control. For the same compound, the T/C (dose: 30.0 mg/kg/injection, schedule: Q01DX010 (ip), vehicle: carboxymethylcellulose (CMC)) was 65 % of control.

For `Nc1ncnc2[nH]ncc12`, the T/C (dose: 6.25 mg/kg/injection, schedule: Q01DX010 (ip), vehicle: carboxymethylcellulose (CMC)) was 73 % of control and the T/C [1] was 64 % of control.

With `CCCNc1ncnc2[nH]ncc12` the T/C (dose: 5.0 mg/kg/injection, schedule: Q01DX010 (ip), vehicle: water) was 71 % of control and the T/C (dose: 10.0 mg/kg/injection, schedule: Q01DX010 (ip), vehicle: water) was 54 % of control.

`CSc1ncnc2nc[nH]c12` was tested, and the T/C [2] was 45 % of control, the T/C [3] was 61 % of control and the T/C [4] was 56 % of control.

For `O=c1[nH]c2cc(Cl)c(Cl)cc2o1`, the T/C [1] was 78 % of control, the T/C [2] was 76 % of control and the T/C [3] was 117 % of control. For the same compound, the T/C [4] was 61 % of control.

`C[C@H](N)C(=O)N[C@@H]1[C@H]2C(=C(O)C[C@@H](O)[C@@H]2O)C(=O)O[C@@H]1C` was tested, and the T/C (dose: 125.0 mg/kg/injection, schedule: Q01DX010 (ip), vehicle: saline) was 61 % of control, the T/C (dose: 250.0 mg/kg/injection, schedule: Q01DX010 (ip), vehicle: saline) was 84 % of control and the T/C (dose: 500.0 mg/kg/injection, schedule: Q01DX010 (ip), vehicle: saline) was 64 % of control.

`CCCCCCCCCCCCCCCCC(C(=O)O)C(O)(CC(=O)O)C(=O)O` (stereo not drawn) was tested, and the T/C [1] was 84 % of control and the T/C [2] was 87 % of control.

With `C[C@]12CCC(=O)C=C1CC[C@H]1[C@@H]3CC[C@](O)(C(=O)CO)[C@@]3(C)C[C@H](O)[C@@]12F` the T/C (dose: 0.5 mg/kg/injection, schedule: Q01DX011 (sc), vehicle: steriod suspending solution) was 76 % of control, the T/C (dose: 1.0 mg/kg/injection, schedule: Q01DX011 (sc), vehicle: steriod suspending solution) was 36 % of control and the T/C (dose: 2.0 mg/kg/injection, schedule: Q01DX011 (sc), vehicle: steriod suspending solution) was 61 % of control. For the same compound, the T/C (dose: 2.5 mg/kg/injection, schedule: Q01DX015 (ip), vehicle: carboxymethylcellulose (CMC)) was 103 % of control, the T/C (dose: 3.5 mg/kg/injection, schedule: Q01DX011 (sc), vehicle: steriod suspending solution) was 64 % of control and the T/C (dose: 5.0 mg/kg/injection, schedule: Q01DX015 (ip), vehicle: carboxymethylcellulose (CMC)) was 105 % of control.

`CC12C=CC(=O)C=C1CCC1C3CCC(O)(C(=O)CO)C3(C)CC(O)C12F` (stereo not drawn) was tested, and the T/C (dose: 3.0 mg/kg/injection, schedule: Q01DX010 (sc), vehicle: steriod suspending solution) was 85 % of control, the T/C (dose: 6.0 mg/kg/injection, schedule: Q01DX010 (sc), vehicle: steriod suspending solution) was 58 % of control and the T/C (dose: 12.0 mg/kg/injection, schedule: Q01DX010 (sc), vehicle: steriod suspending solution) was 56 % of control.
